Data on 2 substances can be found in patent US8221992B2, “Assays for determining compounds which modulate TRAM phosphorylation” (Opsona Therapeutics Limited, priority 2005, dated 2012).

One assay deals with TRAM. In words: Immunoblot of PKCε expressing MEF lysates with phospho-specific (Serine 16) TRAM antibody. The format is cell-based. Particulars: stimulation for 30 minutes (LPS 15 and 30 minutes). An excerpt: Fabgennix (Texas, USA), using a synthetic peptide corresponding to amino acids 7 to 21 of TRAM (KIN SCP LSL SWG KRH) with a phosphoserine incorporated instead of the serine at amino acid 16, generated and purified a phospho-specific antibody towards TRAM phosphorylated on Serine 16. The validity of the antibody was confirmed when the band predicted to the phosphorylated TRAM was not present in samples taken from TRAM-deficient MEFs (data not shown).
The phosphorylation occurred earlier in this cell type than the THP1 cells as the effect was waning by 45 minutes (lane 11) and was not evident at 60 minutes (lane 12). Levels of total TRAM were not altered in the lysates over the time course (FIG. 4c, second panel). Importantly no band was detected in lysates generated from PKCε^−/− MEFs (FIG. 4c, top panel, lane 1-6) and no bands were detected in TRAM-deficient cells attesting to the specificity of the antibody (data not shown). Finally treatment of PKCε expressing MEFs with the TLR2 ligand MALP2 or the TLR3 ligand polyI:C for 30 minutes had no effect (FIG. 4d).

A further assay deals with GST-TRAM. As to the kind of experiment: Kinase assay: GST-TRAM pulldown with THP1 lysates, [γ32P] ATP. The format is biochemical. Particulars: THP1 cells treated with the stimulus before lysis. On the procedure:
Kinase assay: THP1 cells were seeded at 2×10^5 cells/ml in a T175 flask (Sarstedt) and incubated overnight at 37° C. The following day 30 ml of cells were treated with and without LPS in 50 ml falcon tubes (Sarstedt) for 1 hour. The cells were collected by centrifugation, washed once in PBS and lysed in 1 ml buffer (10% glycerol (v/v), 50 mM NaF, 20 mM Tris-Cl pH 8.0, 2 mM EDTA, 137 mM NaCl, 1% NP-40, 1 mM PMSF, 10 μg/ml leupeptin, 1 mM Na3VO4) for 10 minutes. The cell debris was centrifuged for 10 min at 13,000 rpm and the supernatant was removed to a fresh tube for use in the kinase assay. 50 μl of the purified GST-TRAM on the Glutathione beads was placed in an eppendorf tube and the appropriate lysate was added to the tube and incubated for 2 hours at 4° C. The beads were spun down at 2,000 rpm for 5 min and then washed three times in kinase buffer (20 mM HEPES, pH 7.5, 10 mM MgAc, 0.03% Trition, 100 μg/ml phosphotidylserine, 20 mM β-glycerol phosphate, 0.01% (w/v) leupeptin and 100 μM Na3VO4). These beads were then resuspended in 30 μl kinase buffer containing 20 μM cold ATP and 5 μCi [γ^32P] […]
TRAM is phosphorylated upon LPS stimulation: TRAM is myristoylated, and in resting cells is located in the membrane (unpublished data). […] The samples were then run on a 10% SDS-PAGE gel, transferred onto nitrocellulose and the incorporated radioactivity was measured using X-ray film. […]

Entries after “also recorded” stand apart in the source; their conditions may differ.

As for MALP2, the “TRAM phosphorylation on serine 16 in PKCε expressing MEFs” value with TRAM was “had no effect”. In the case of PolyI:C, in the assay with TRAM, the “TRAM phosphorylation on serine 16 in PKCε expressing MEFs” value was “had no effect”. Moreover, the “phosphorylation of GST-TRAM by lysates of stimulated THP1 cells” value with GST-TRAM was “phosphorylation of TRAM does not occur; also recorded: This phosphorylation did not occur”.
